How the values were obtained:
Type in all cases: biochemical
[1] = biological target: JAK3 (Homo sapiens (Human), UniProt P52333); assay: In vitro JAK kinase assay (TR-FRET), JAK3; details: catalytic domain aa 795-1124, GST-fusion; ATP 0.6 μM; peptide 140 nM; 30 minutes at room temperature
Outline: (§1)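 Each human JAK enzyme assayed on biotinylated poly(GT) peptide substrate, reaction 30 min at room temperature. Phosphorylation detected by TR-FRET after a 3 h detection incubation.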

[2] = biological target: JAK1 (Homo sapiens (Human), UniProt P23458); assay: In vitro JAK kinase assay (TR-FRET), JAK1; details: catalytic domain aa 850-1154, GST-fusion; ATP 3 μM; peptide 60 nM; 30 minutes at room temperature
Sequence of JAK1 (P23458 850-1154): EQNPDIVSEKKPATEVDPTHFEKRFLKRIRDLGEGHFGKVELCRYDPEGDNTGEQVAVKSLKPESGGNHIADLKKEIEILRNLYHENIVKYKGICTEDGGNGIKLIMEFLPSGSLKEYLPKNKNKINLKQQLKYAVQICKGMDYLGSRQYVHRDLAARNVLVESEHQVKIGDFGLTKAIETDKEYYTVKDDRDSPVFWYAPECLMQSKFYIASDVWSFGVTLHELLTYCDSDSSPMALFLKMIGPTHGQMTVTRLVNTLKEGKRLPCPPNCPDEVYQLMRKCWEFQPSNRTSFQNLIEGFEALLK
Outline: as §1

[3] = biological target: JAK2 (Homo sapiens (Human), UniProt O60674); assay: In vitro JAK kinase assay (TR-FRET), JAK2; details: catalytic domain aa 826-1132, GST-fusion; ATP 0.2 μM; peptide 20 nM; 30 minutes at room temperature
Sequence of JAK2 (O60674 826-1132): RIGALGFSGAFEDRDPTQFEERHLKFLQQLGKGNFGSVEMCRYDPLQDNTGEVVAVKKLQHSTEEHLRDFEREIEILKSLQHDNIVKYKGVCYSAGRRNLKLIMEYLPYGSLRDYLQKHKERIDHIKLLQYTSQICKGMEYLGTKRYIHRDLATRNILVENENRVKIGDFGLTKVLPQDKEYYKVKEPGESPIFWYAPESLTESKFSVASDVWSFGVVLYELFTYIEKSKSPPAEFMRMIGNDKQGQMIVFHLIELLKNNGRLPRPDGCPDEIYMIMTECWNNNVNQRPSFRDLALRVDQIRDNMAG
Outline: as §1

Sequence of JAK3 (P52333 795-1124): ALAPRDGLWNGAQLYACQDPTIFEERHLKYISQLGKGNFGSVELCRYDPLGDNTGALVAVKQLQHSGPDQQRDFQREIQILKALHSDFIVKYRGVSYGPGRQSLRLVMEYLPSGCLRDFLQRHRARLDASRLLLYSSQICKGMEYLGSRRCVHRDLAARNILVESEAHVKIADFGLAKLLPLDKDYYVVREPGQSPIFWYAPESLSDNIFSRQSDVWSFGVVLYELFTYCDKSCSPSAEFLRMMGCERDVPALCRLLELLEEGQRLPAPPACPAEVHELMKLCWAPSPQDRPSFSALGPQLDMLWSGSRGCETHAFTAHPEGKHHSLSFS

Row | Compound | IC50 [1] [nM] | IC50 [2] [nM] | IC50 [3] [nM]
1 | COC[C@@H](C)Oc1nc(-c2cnn3ccccc23)nc(N[C@@H]2CCCN(c3cnc(C#N)cn3)C2)c1F [Example 91, 5-[(3R)-3-({5-Fluoro-6-[(1R)-2-methoxy-1-methylethoxy]-2-pyrazolo[1,5-a]pyridin-3-ylpyrimidin-4-yl}amino)piperidin-1-yl]pyrazine-2-carbonitrile] | 5 | 114 | 2
2 | N#CC[C@H]1CC[C@H](Nc2nc(-c3cnn4ccccc34)nc(OC[C@@H](O)CO)c2F)CC1 [Example 6, {Trans-4-[(6-{[(2S)-2,3-dihydroxypropyl]oxy}-5-fluoro-2-pyrazolo[1,5-a]pyridin-3-ylpyrimidin-4-yl)amino]cyclohexyl}acetonitrile] | 3 | 15 | 0.7
3 | CC(C)(O)Cn1cc(-c2nc(-c3cnn4ccccc34)nc(N[C@@H]3CCCN(C(=O)CO)C3)c2F)cn1 [Example 33, 1-[4-(5-Fluoro-6-{[(3R)-1-glycoloylpiperidin-3-yl]amino}-2-pyrazolo[1,5-a]pyridin-3-ylpyrimidin-4-yl)-1H-pyrazol-1-yl]-2-methylpropan-2-ol] | 2 | 6 | 0.6
4 | O=C(CO)N1CCC[C@@H](Nc2nc(-c3cnn4ccccc34)nc(-c3cncc(CO)c3)c2F)C1 [Example 88, 2-[(3R)-3-({5-Fluoro-6-[5-(hydroxymethyl)pyridin-3-yl]-2-pyrazolo[1,5-a]pyridin-3-ylpyrimidin-4-yl}amino)piperidin-1-yl]-2-oxoethanol] | 4 | 14 | 1
5 | O=C(CO)N1CCC[C@@H](Nc2nc(-c3cnn4ccccc34)nc(-c3cccnc3)c2F)C1 [Example 62, 2-{(3R)-3-[(5-Fluoro-2-pyrazolo[1,5-a]pyridin-3-yl-6-pyridin-3-ylpyrimidin-4-yl)amino]piperidin-1-yl}-2-oxoethanol] | 7 | 4 | 1
6 | COc1nc(-c2cnn3ccccc23)nc(N[C@@H]2CCCN(C(=O)CO)C2)c1C [Example 93, 2-{(3R)-3-[(6-Methoxy-5-methyl-2-pyrazolo[1,5-a]pyridin-3-ylpyrimidin-4-yl)amino]piperidin-1-yl}-2-oxoethanol] | 6 | 23 | 3
7 | O=C(CO)N1CCC[C@@H](Nc2nc(-c3cnn4ccccc34)nc(N3CCC(CO)CC3)c2F)C1 [Example 23, 2-[(3R)-3-({5-Fluoro-6-[4-(hydroxymethyl)piperidin-1-yl]-2-pyrazolo[1,5-a]pyridin-3-ylpyrimidin-4-yl}amino)piperidin-1-yl]-2-oxoethanol] | 5 | 8 | 1
8 | COCCOc1nc(-c2cnn3ccccc23)nc(N[C@@H]2CCCN(C(=O)CO)C2)c1C [Example 27, 2-((3R)-3-{[6-(2-Methoxyethoxy)-5-methyl-2-pyrazolo[1,5-a]pyridin-3-ylpyrimidin-4-yl]amino}piperidin-1-yl)-2-oxoethanol] | 3 | 19 | 0.7
9 | Cc1cc(-c2nc(-c3cnn4ccccc34)nc(N(C)[C@@H]3CCCN(C(=O)CC#N)C3)c2F)ccn1 [Example 21, 3-{(3R)-3-[[5-fluoro-6-(2-methylpyridin-4-yl)-2-pyrazolo[1,5-a]pyridin-3-ylpyrimidin-4-yl](methyl)amino]piperidin-1-yl}-3-oxopropanenitrile] | 11 | 6 | 1
10 | COc1ccc(-c2nc(-c3cnn4ccccc34)nc(N[C@@H]3CCCN(C(=O)CC#N)C3)c2F)cn1 [Example 19, 3-((3R)-3-{[5-fluoro-6-(6-methoxypyridin-3-yl)-2-pyrazolo[1,5-a]pyridin-3-ylpyrimidin-4-yl]amino}piperidin-1-yl)-3-oxopropanenitrile] | 2 | 2 | 0.3
11 | Cc1ncc(-c2nc(-c3cnn4ccccc34)nc(N[C@@H]3CCCN(C(=O)CO)C3)c2F)cn1 [Example 82, 2-{(3R)-3-[(5-Fluoro-2′-methyl-2-pyrazolo[1,5-a]pyridin-3-yl-4,5′-bipyrimidin-6-yl)amino]piperidin-1-yl}-2-oxoethanol] | 8 | 9 | 2
12 | O=C(CO)N1CCC[C@@H](Nc2nc(-c3cnn4ccccc34)nc(OCC(F)(F)F)c2F)C1 [Example 49, 2-((3R)-3-{[5-Fluoro-2-pyrazolo[1,5-a]pyridin-3-yl-6-(2,2,2-trifluoroethoxy)pyrimidin-4-yl]amino}piperidin-1-yl)-2-oxoethanol] | 14 | 35 | 10
13 | N#Cc1cnc(N2CCC[C@@H](Nc3nc(-c4cnn5ccccc45)nc(OCCO)c3F)C2)nc1 [Example 57, 2-((3R)-3-{[5-fluoro-6-(2-hydroxyethoxy)-2-pyrazolo[1,5-a]pyridin-3-ylpyrimidin-4-yl]amino}piperidin-1-yl)pyrimidine-5-carbonitrile] | 2 | 19 | 2
14 | N#CC[C@H]1CC[C@H](Nc2nc(-c3cnn4ccccc34)nc(N3CCC(O)CC3)c2F)CC1 [Example 1, (Trans-4-{[5-fluoro-6-(4-hydroxypiperidin-1-yl)-2-pyrazolo[1,5-a]pyridin-3-ylpyrimidin-4-yl]amino}cyclohexyl)acetonitrile] | 3 | 12 | 0.5
15 | CCOc1nc(-c2cnn3ccccc23)nc(N[C@@H]2CCCN(C(=O)CO)C2)c1F [Example 45, 2-{(3R)-3-[(6-Ethoxy-5-fluoro-2-pyrazolo[1,5-a]pyridin-3-ylpyrimidin-4-yl)amino]piperidin-1-yl}-2-oxoethanol] | 3 | 4 | 1
16 | COc1nc(-c2cnn3ccccc23)nc(O[C@@H]2CCCN(C(=O)CC#N)C2)c1F [Example 64, 3-{(3R)-3-[(5-Fluoro-6-methoxy-2-pyrazolo[1,5-a]pyridin-3-ylpyrimidin-4-yl)oxy]piperidin-1-yl}-3-oxopropanenitrile] | 4 | 28 | 3
17 | N#CCC(=O)N1CCC[C@@H](Nc2nc(-c3cnn4ccccc34)nc(OCCO)c2F)C1 [Example 14, 3-((3R)-3-{[5-fluoro-6-(2-hydroxyethoxy)-2-pyrazolo[1,5-a]pyridin-3-ylpyrimidin-4-yl]amino}piperidin-1-yl)-3-oxopropanenitrile] | 1 | 1 | 0.5
18 | N#CCC(=O)N1CCC[C@@H](Nc2cc(-c3cncc(O)c3)nc(-c3cnn4ccccc34)n2)C1 [Example 106, 3-((3R)-3-{[6-(5-Hydroxypyridin-3-yl)-2-pyrazolo[1,5-a]pyridin-3-ylpyrimidin-4-yl]amino}piperidin-1-yl)-3-oxopropanenitrile] | 1 | 1 | 1
19 | N#CCC(=O)N1CCC[C@@H](Nc2cc(OCCO)nc(-c3cnn4ccccc34)n2)C1 [Example 103, 3-((3R)-3-{[6-(2-Hydroxyethoxy)-2-pyrazolo[1,5-a]pyridin-3-ylpyrimidin-4-yl]amino}piperidin-1-yl)-3-oxopropanenitrile] | 1 | 1 | 1

Source: patent US10759793B2, “2-(pyrazolopyridin-3-yl)pyrimidine derivatives as JAK inhibitors” (ALMIRALL, S.A., priority 2015, dated 2020)
